Assay results from US7651846B2, “Treatment and diagnosis of conditions associated with elevated arginase activity” (Children's Hospital & Research Center at Oakland, priority 2003, dated 2010).

Columns and labels:
arginase = details: cited from earlier work
[1] = tested on: Patients with sickle cell disease and documented pulmonary hypertension; assay: Oral L-arginine in sickle cell disease patients with pulmonary hypertension, Doppler echocardiography; format: in vivo, human
Excerpt: Sickle cell patients. Seventeen sickle cell disease patients with documented pulmonary hypertension at steady-state were enrolled in the study. All known patients with pulmonary hypertension receiving care at the Northern California Comprehensive Sickle Cell Center were approached for participation in this analysis. Twelve patients were homozygous for hemoglobin S, three patients had hemoglobin type SC, and two patient had hemoglobin S β-thalassemia. The mean age of patients was 32.7±15 years with a range of 13 to 63 years. There were seven women enrolled. Ten ethnically matched normal non-sickle cell disease volunteers were enrolled as a control group in order to compare amino acid levels and arginase activity. The mean age was 20.6±10 years, ranging from 10 to 34 years. There were four females and six males enrolled. Pulmonary hypertension was defined as estimated pulmonary artery pressures >30 mm Hg by echocardiogram (or tricuspid regurgitant jet velocity of greater than 2.5 m/sec), >two months duration, not associated with acute chest syndrome. A chart review was performed on all patients to obtain tricuspid regurgitant jet velocity data from previous echocardiograms.
(§1) Patients with sickle cell disease and documented pulmonary hypertension by echocardiography were treated with oral L-arginine-HCl, at a dose of 0.1 g/kg TID for five days. […] Blood samples for determination of amino acid levels were drawn in the morning of Day 0 (pre-treatment), […], and Day six of the study. Arginase activity levels were determined on Day 0. No patients were being concurrently treated with vasodilators or anticoagulant agents, and no patients received a red blood cell transfusion during the five-day study period. Cardiologists involved in the interpretation of echocardiograms were unaware of the therapy given.
Echocardiography. […] They were the only patient found to not show an improvement in pulmonary hypertension by echocardiogram.
Results were unavailable from outside hospitals in three patients. […]

[2] = Plasma amino acid levels after oral L-arginine supplementation in SCD patients with pulmonary hypertension; format: in vivo, human; details: after five days of oral L-arginine supplementation, n=10, p<0.05
Description: Amino Acid Levels. (A complete amino acid panel, including arginine, citrulline, ornithine, and L-arginine analogue asymmetric di-methyl-L-arginine). Quantitative plasma amino acid levels are measured in μmol/L, using a Beckman 6300 amino acid analyzer. The amino acids are separated on an lithium ion exchange column and then reacted with ninhydrin to generate a color response. The data is collected and analyzed using Beckman 32 Karat software, at the Molecular Structure Facility, University of California, Davis, Calif.
as §1

[3] = tested on: patients with a known diagnosis of asthma; details: single oral dose 0.1 gm/kg, one patient
Description: The effects of arginine supplementation on pulmonary function tests is evaluated by administering supplemental arginine (oral or intravenous) alone or in conjunction with magnesium and/or an arginase inhibitor to patients with a known diagnosis of asthma, defined as ≧3 wheezing episodes and a past history of asthma medication usage (e.g., bronchodilators, steroids, inhaled steroids, or leukotriene inhibitors etc). Pulmonary function tests are performed before and after a single dose of arginine (0.1 gram/kg to a max of 10 grams).
A single dose of oral arginine (0.1 gm/kg) was administered. Pulmonary function tests were determined prior to treatment and 2 hours after arginine supplementation.

[4] = tested on: hyperresponsiveness of reactive airways; details: animal studies, inhalation of low doses; cited from earlier work
cystic fibrosis patients = details: inhaled; cited from earlier work
[5] = tested on: normal and asthmatic subjects; details: inhaled, dose-dependent; cumulative effect higher in asthmatic subjects; cited from earlier work
patients with asthma = details: oral; cited from earlier work
asthma patients = details: nebulised, steroid naive asthma; cited from earlier work
[6] = tested on: cationic amino acid molecules (Cationic Amino Acid Transporter, CAT); details: read-out: Km for arginine transport; cited from earlier work

| Compound | inhibition of arginase activity (arginase) | pulmonary artery systolic pressure after therapy ([1]; oral 0.1 g/kg TID for five days, baseline 63.9±13 mmHg, p=0.002) | mean reduction of pulmonary artery systolic pressure ([1]; oral L-arginine-HCl 0.1 g/kg TID, after five days of therapy, p=0.002) | follow-up echocardiography (pulmonary artery systolic pressure) ([1]; ≧one month after arginine therapy, nine compliant patients: four reverted to baseline, four persistent improvement, one worsening) | plasma L-arginine concentration [2] | plasma ornithine concentration [2] | FIF 50% improvement ([3]; 2 hours after) | effect on lung volumes ([3]; 2 hours after) | effect on spirometry ([3]; 2 hours after) | airway conductance, Gaw increase ([3]; within 2 hours) | airway resistance, Raw decrease ([3]; within 2 hours) | oxygen saturation by venous blood gas after treatment ([3]; increase from 85 %) | hyperresponsiveness of reactive airways [4] | pulmonary functions (cystic fibrosis patients) | exhaled NO [5] | airway hyperresponsiveness to histamine as reflected by PC(20) (patients with asthma) | exhaled NO following administration (asthma patients) | Km [6] |
| --- | --- | --- | --- | --- | --- | --- | --- | --- | --- | --- | --- | --- | --- | --- | --- | --- | --- | --- |
| NC(=NCCC[C@H](N)C(=O)O)NO [NG-hydroxyl-L-arginine] | potent inhibitor |  |  |  |  |  |  |  |  |  |  |  |  |  |  |  |  |  |
| N=C(N)NCCC[C@H](N)C(=O)O [L-arginine] |  | 54.2±12 mmHg | 15.2% | mixed results | increased significantly | increased significantly | 23% | minimal effect | did not significantly effect spirometry | 28% | 22% | 92% | completely blocked | improves | increased | does not influence | increased | ~100 µM |
| N=C(N)NCCC[C@@H](N)C(=O)O [D-arginine] |  |  |  |  |  |  |  |  |  |  |  |  |  |  |  |  | increased |  |
